# Measurements published in patent US6344179B1, “Fluoralkenyl nortropanes” (Emory University, priority 1999, dated 2002).
# “Also recorded” adds a separate entry of the source.
# How the values were obtained:
# striatal DAT [1] = test: PET imaging in awake rhesus monkeys; type: in vivo, rhesus monkey
# Experimental: The regional kinetics of [^18F] […] Both [^18F] […] [^18F] […] The peak uptake ratio of striatumwcerebellum was 4:1 at 20 minutes for [^18F] […] 6d. The in vivo ratio of [1^18F] […] FECNT, 5:1. [^18F]
# [2] = In vivo regional brain tissue distribution of 18F-labeled ligands in rats; design: species or system Sprague Dawley rats; settings: rat; for Regional uptake of radioactivity, Cerebellum / Regional uptake of radioactivity, Cortex (Cx) / Regional uptake of radioactivity, Striatum / Uptake of radioactivity, Blood / Uptake of radioactivity, Bone / Uptake of radioactivity, Brain: i.v., 18F-labeled
# Text: The in vivo regional brain tissue distribution of [^18F]
# rat brain DAT [3] = molecular target: T1, rat brain DAT (Rattus norvegicus, UniProt P23977); test: In vivo specificity: RTI-113 block before the 18F ligand in rats
# T1 construct: from tissue; host or cells: brain of living male Sprague Dawley rats (striatum, cortex, cerebellum dissected)
# T1 sequence (P23977 whole entry): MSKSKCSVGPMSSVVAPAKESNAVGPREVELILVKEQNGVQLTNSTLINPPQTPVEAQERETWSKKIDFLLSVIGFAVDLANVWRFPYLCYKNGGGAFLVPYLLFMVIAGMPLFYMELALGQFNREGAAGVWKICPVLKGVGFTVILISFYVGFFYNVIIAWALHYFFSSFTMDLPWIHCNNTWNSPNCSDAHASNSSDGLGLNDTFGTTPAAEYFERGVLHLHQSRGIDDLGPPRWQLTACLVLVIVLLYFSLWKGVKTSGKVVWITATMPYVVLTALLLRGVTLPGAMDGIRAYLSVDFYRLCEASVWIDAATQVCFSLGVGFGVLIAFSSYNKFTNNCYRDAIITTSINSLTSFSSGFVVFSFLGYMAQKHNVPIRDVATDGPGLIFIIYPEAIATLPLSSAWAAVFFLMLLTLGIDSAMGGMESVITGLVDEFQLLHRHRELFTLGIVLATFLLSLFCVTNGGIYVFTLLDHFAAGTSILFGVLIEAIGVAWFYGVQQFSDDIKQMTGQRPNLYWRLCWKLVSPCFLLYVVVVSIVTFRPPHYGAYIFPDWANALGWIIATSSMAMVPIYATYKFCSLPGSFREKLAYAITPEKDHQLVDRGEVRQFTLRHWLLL
# Experimental: To determine the in vivo specificity of FBNT analogs [^18F] […] 6a, 6d and 6e. The rats were sacrificed 60 minutes after injection of [^18F] […] 6a, 6d and 6e, in the DAT transporter rich striatum.
# [4] = Stability to metabolism and in vivo loss of fluorine-18
# rat brain DAT [5] = molecular target: T1, rat brain DAT; test: In vivo selectivity: block with monoamine transporter ligands before [18F]FBCINT in rats; settings: 60 minutes
# Experimental: FBCINT. The rats were sacrificed 60 minutes after injection of [^18F] FBCINT and the striatum, cortex, prefrontal cortex, olfactory tubercles and cerebellum were dissected and the uptake of radioactivity determined. The monoamine transporter ligands administered were RTI-113 (DAT), paroxetine (SERT) and reboxetine (NET). […] FBCINT in the DAT transporter rich striatum and olfactory tubercles. […] FBCINT.
# [6] = PET brain imaging in a rhesus monkey; type: in vivo
# Experimental: The regional distribution of E-[^18F] […] Dynamic emission data were acquired using a 35 frame acquisition protocol which included twelve 30 second scans, six one minute scans, six 3 minute scans, five 10 minute scans and six 20 minute scans.
# striatal DAT [7] = test: Chase (displacement) study with β-CIT, PET in rhesus monkey; type: in vivo; settings: for displacement from striatum by β-CIT: PET
# Experimental: A chase study with E-[^18F] FBCINT and β-CIT, a DAT ligand, was also performed in the same rhesus monkey. At 195 minutes p.i. 3.0 mg (0.9 μmol/kg) of β-CIT, was administered intravenously and dynamic imaging was continued for an additional 40 minutes (eight 5 minute scans). […] The displacement of E-[^18F] […] The regional distribution and kinetic behavior of E-[^18F] […] FBFNT (6e) were next compared in the brain of awake rhesus monkeys.
# DAT [8] = settings: non-human primates, within 2 h post injection; cited from earlier work
# DAT [9] = settings: cited from earlier work
# [10] = 60 min, 5 mg/kg RTI-113 i.v. 15 minutes prior
smiles,measurement,setting,value
"COC(=O)C1C(c2ccc(Cl)cc2)CC2CCC1N2C/C=C/CF (stereo not drawn) [6d, N-((E)-4-fluorobut-2-en-1-yl)-2β-carbomethoxy-3β-(4-chlorophenyl)nortropane]",striatal washout / time course of uptake,"striatal DAT [1]; awake rhesus monkey, decay corrected",very little if any washout; also recorded: appears constant at 115 minutes post injection
same,initial uptake in striatum and cerebellum,striatal DAT [1]; awake rhesus monkeys,high initial uptake in the striatum and very little uptake in the cerebellum
same,clearance from striatal tissue,[2]; at 120 minutes compared to 5 minutes post injection,50%
same,"Regional uptake of radioactivity, Cerebellum",[2]; 5 min,0.52 % dose/g
same,"Regional uptake of radioactivity, Cortex (Cx)",[2]; 5 min,0.76 % dose/g
same,"Regional uptake of radioactivity, Striatum",[2]; 5 min,1.33 % dose/g
same,"Uptake of radioactivity, Blood",[2]; 5 min,0.14 % dose/g
same,"Uptake of radioactivity, Bone",[2]; 5 min,0.30 % dose/g
same,"Uptake of radioactivity, Brain",[2]; 5 min,0.66 % dose/g
same,"Regional uptake of radioactivity, Cerebellum",[2]; 30 min,0.19 % dose/g
same,"Regional uptake of radioactivity, Cortex (Cx)",[2]; 30 min,0.40 % dose/g
same,"Regional uptake of radioactivity, Striatum",[2]; 30 min,1.31 % dose/g
same,"Uptake of radioactivity, Blood",[2]; 30 min,0.16 % dose/g
same,"Uptake of radioactivity, Bone",[2]; 30 min,0.80 % dose/g
same,"Uptake of radioactivity, Brain",[2]; 30 min,0.29 % dose/g
same,"Regional uptake of radioactivity, Cerebellum",[2]; 60 min,0.10 % dose/g
same,"Regional uptake of radioactivity, Cortex (Cx)",[2]; 60 min,0.13 % dose/g
same,"Regional uptake of radioactivity, Striatum",[2]; 60 min,0.61 % dose/g
same,"Uptake of radioactivity, Blood",[2]; 60 min,0.10 % dose/g
same,"Uptake of radioactivity, Bone",[2]; 60 min,1.35 % dose/g
same,"Uptake of radioactivity, Brain",[2]; 60 min,0.14 % dose/g
same,"Regional uptake of radioactivity, Cerebellum",[2]; 120 min,0.13 % dose/g
same,"Regional uptake of radioactivity, Cortex (Cx)",[2]; 120 min,0.24 % dose/g
same,"Regional uptake of radioactivity, Striatum",[2]; 120 min,0.69 % dose/g
same,"Uptake of radioactivity, Blood",[2]; 120 min,0.13 % dose/g
same,"Uptake of radioactivity, Bone",[2]; 120 min,1.9 % dose/g
same,"Uptake of radioactivity, Brain",[2]; 120 min,0.17 % dose/g
same,"Regional uptake of radioactivity, Striatum","[2]; 120 min, listed as [F-18]FBCINT",2.5 % dose/g
same,"Regional uptake of radioactivity, Cerebellum",rat brain DAT [3]; [10],0.12 % dose/g
same,"Regional uptake of radioactivity, Cortex (Cx)",rat brain DAT [3]; [10],0.14 % dose/g
same,"Regional uptake of radioactivity, Striatum",rat brain DAT [3]; [10],0.15 % dose/g
same,"Uptake of radioactivity, Blood",rat brain DAT [3]; [10],0.12 % dose/g
same,"Uptake of radioactivity, Brain",rat brain DAT [3]; [10],0.12 % dose/g
same,effect of RTI-113 on uptake in the striatum,"rat brain DAT [3]; RTI-113 5 mg/kg i.v. 15 minutes prior, 60 minutes",significantly blocked
same,stability to metabolism and in vivo loss of fluorine-18,[4],stable to metabolism and in vivo loss of the fluorine-18 radioisotope
same,effect of GBR 12909 on uptake in striatum and olfactory tubercles,rat brain DAT [5]; 5 mg/kg i.v. 15 minutes prior,significantly blocked
same,effect of SERT and NET blocking agents on regional brain uptake,rat brain DAT [5]; 5 mg/kg i.v. 15 minutes prior,no effect
same,"Regional uptake, Cerebellum",rat brain DAT [5]; GBR 12909 5 mg/kg i.v.,0.15 % dose/g
same,"Regional uptake, Cortex (CX) (dry tissue)",rat brain DAT [5]; GBR 12909 5 mg/kg i.v.,0.69 % dose/g
same,"Regional uptake, Olfactory Tubercle (dry tissue)",rat brain DAT [5]; GBR 12909 5 mg/kg i.v.,1.07 % dose/g
same,"Regional uptake, Prefrontal Cx (dry tissue)",rat brain DAT [5]; GBR 12909 5 mg/kg i.v.,1.02 % dose/g
same,"Regional uptake, Striatum (dry tissue)",rat brain DAT [5]; GBR 12909 5 mg/kg i.v.,1.51 % dose/g
same,"Regional uptake, Cerebellum",rat brain DAT [5]; No Block,0.13 % dose/g
same,"Regional uptake, Cortex (CX) (dry tissue)",rat brain DAT [5]; No Block,0.53 % dose/g
same,"Regional uptake, Olfactory Tubercle (dry tissue)",rat brain DAT [5]; No Block,5.26 % dose/g
same,"Regional uptake, Prefrontal Cx (dry tissue)",rat brain DAT [5]; No Block,0.74 % dose/g
same,"Regional uptake, Striatum (dry tissue)",rat brain DAT [5]; No Block,6.96 % dose/g
same,"Regional uptake, Cerebellum",rat brain DAT [5]; Paroxetine 5 mg/kg i.v.,0.10 % dose/g
same,"Regional uptake, Cortex (CX) (dry tissue)",rat brain DAT [5]; Paroxetine 5 mg/kg i.v.,0.46 % dose/g
same,"Regional uptake, Olfactory Tubercle (dry tissue)",rat brain DAT [5]; Paroxetine 5 mg/kg i.v.,5.06 % dose/g
same,"Regional uptake, Prefrontal Cx (dry tissue)",rat brain DAT [5]; Paroxetine 5 mg/kg i.v.,0.67 % dose/g
same,"Regional uptake, Striatum (dry tissue)",rat brain DAT [5]; Paroxetine 5 mg/kg i.v.,4.47 % dose/g
same,"Regional uptake, Cerebellum",rat brain DAT [5]; Reboxetine 5 mg/kg i.v.,0.12 % dose/g
same,"Regional uptake, Cortex (CX) (dry tissue)",rat brain DAT [5]; Reboxetine 5 mg/kg i.v.,0.41 % dose/g
same,"Regional uptake, Olfactory Tubercle (dry tissue)",rat brain DAT [5]; Reboxetine 5 mg/kg i.v.,5.74 % dose/g
same,"Regional uptake, Prefrontal Cx (dry tissue)",rat brain DAT [5]; Reboxetine 5 mg/kg i.v.,0.77 % dose/g
same,"Regional uptake, Striatum (dry tissue)",rat brain DAT [5]; Reboxetine 5 mg/kg i.v.,6.64 % dose/g
same,striatum (S) uptake by PET,[6]; 180-210 min,2.7 μCi/mL
same,striatum uptake,[6]; PET,high striatum uptake; also recorded: region of highest uptake in the brain
same,displacement from striatum by β-CIT,striatal DAT [7],striatal washout; also recorded: significant reduction of activity in the striatum
same,displacement from striatum by β-CIT,striatal DAT [7]; listed as FBCINT,exhibited reversibility
same,washout half-time on displacement by β-CIT,striatal DAT [7]; β-CIT 0.9 μmol/kg i.v. at 195 minutes p.i.,21 min
"COC(=O)C1C(c2ccc(Cl)cc2)CC2CCC1N2C/C=C/[123I] (stereo not shown) [MMG/142, IPT]",striatal to cerebellum ratios,DAT [8],15 to 1
same,in vitro selectivity (DA/5-HT),DAT [9],~7
